Assay results taken from BindingDB's records for doi:10.7270/Q23B5XKP (Vanderbilt Screening Center for GPCRs, Ion Channels and …, 2009).

Each molecule was assayed against T1, Solute carrier family 12 member 5 (Homo sapiens, UniProt Q9H2X9) (assay: KCC2 cotransport modulators, dose response, cell-based, assay 2 (AID 1723)). Conditions: not given.
T1 sequence (Q9H2X9 whole entry): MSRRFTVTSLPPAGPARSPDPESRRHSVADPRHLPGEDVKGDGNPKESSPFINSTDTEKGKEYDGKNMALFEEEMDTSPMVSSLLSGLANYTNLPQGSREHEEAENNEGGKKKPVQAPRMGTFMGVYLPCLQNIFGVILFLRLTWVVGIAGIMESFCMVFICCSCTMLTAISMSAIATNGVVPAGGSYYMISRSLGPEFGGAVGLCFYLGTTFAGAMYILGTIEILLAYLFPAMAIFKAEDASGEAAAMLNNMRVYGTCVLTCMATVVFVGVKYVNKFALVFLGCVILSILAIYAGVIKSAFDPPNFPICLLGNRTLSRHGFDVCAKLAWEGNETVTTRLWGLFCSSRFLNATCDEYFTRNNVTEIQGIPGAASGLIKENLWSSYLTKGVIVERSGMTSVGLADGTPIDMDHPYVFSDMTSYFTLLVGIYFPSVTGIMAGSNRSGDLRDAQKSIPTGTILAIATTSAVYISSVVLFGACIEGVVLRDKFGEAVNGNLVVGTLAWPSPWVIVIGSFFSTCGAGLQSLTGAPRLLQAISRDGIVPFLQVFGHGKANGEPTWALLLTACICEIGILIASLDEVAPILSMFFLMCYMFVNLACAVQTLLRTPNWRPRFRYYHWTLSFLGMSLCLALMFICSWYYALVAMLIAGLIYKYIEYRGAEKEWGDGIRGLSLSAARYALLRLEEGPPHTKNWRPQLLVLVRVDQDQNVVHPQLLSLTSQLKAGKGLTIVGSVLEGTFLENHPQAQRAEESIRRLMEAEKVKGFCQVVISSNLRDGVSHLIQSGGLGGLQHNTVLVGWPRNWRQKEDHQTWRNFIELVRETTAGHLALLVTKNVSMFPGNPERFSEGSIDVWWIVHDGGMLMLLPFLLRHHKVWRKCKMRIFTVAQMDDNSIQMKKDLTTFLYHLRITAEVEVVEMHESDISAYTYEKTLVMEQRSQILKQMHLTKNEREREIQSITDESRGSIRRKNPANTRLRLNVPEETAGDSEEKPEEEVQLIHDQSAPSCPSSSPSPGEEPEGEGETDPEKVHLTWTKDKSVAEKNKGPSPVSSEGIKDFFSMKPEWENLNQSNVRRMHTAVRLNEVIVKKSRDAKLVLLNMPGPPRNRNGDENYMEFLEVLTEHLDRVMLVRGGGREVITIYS
Molecule Cc1[nH]n2c(=O)cc(C(C)C)nc2c1-c1ccccc1 has an EC50 of 21 µM.
For O=[N+]([O-])c1ccc(-c2cn(-c3ccccc3F)c(=S)[nH]2)cc1, the EC50 was 0.616 µM.
With S=c1nc(-c2ccc3c(c2)CCO3)cc[nH]1 the EC50 was 6.1 µM.
O=C1OC(c2ccc(O)cc2)(c2ccc(O)cc2)c2ccccc21 showed an EC50 of 11.8 µM.
Work on COc1ccc(Cn2c(=S)[nH]c3ccccc32)cc1 [1-(4-methoxybenzyl)-1H-benzimidazole-2-thiol] yielded an EC50 of 0.401 µM.
Work on S=C(NCCc1ccccc1)NN=Cc1cccc(Cl)c1Cl [1-[(2,3-dichlorobenzylidene)amino]-3-phenethyl-thiourea] yielded an EC50 of 10.1 µM.
For Fc1cccc(F)c1C=NNC(=S)Nc1cccnc1 [1-[(2,6-difluorobenzylidene)amino]-3-(3-pyridyl)thiourea], the EC50 was 6.66 µM.
NC(=S)NN=C1C(=O)N(Cc2ccc(F)cc2)c2ccccc21 [1-[(Z)-[1-[(4-fluorophenyl)methyl]-2-oxidanylidene-indol-3-ylidene]amino]thiourea] was tested, and the EC50 was 7.58 µM.
Work on N=C1SCC(=O)N1c1ncc(Cc2cccc(Cl)c2)s1 [2-azanylidene-3-[5-[(3-chlorophenyl)methyl]-1,3-thiazol-2-yl]-1,3-thiazolidin-4-one] yielded an EC50 of 2.86 µM.
In the case of O=C(NC(=S)Nc1nc(-c2cccc([N+](=O)[O-])c2)cs1)c1ccccc1Cl [2-chloranyl-N-[[4-(3-nitrophenyl)-1,3-thiazol-2-yl]carbamothioyl]benzamide], the EC50 is reported as 139 µM.
CCOc1ccc2nc(Sc3cc(O)n(-c4cccc(OC)c4)c3O)sc2c1 [3-(6-Ethoxy-benzothiazol-2-ylsulfanyl)-1-(3-methoxy-phenyl)-pyrrolidine-2,5-dione] gave an EC50 of 7.89 µM.
For CCOc1cccc(C(=O)NC(=S)Nc2cccc(C)c2)c1 [3-ethoxy-N-(m-tolylthiocarbamoyl)benzamide], the EC50 was 1.58 µM.
Molecule COC(=O)[C@@H](NC(=O)O[C@@H]1C(=O)c2ccc(OC)cc2O[C@H]1c1cccc(C(F)(F)F)c1)C(C)C [(2S)-2-[[(2S,3S)-4-keto-7-methoxy-2-[3-(trifluoromethyl)phenyl]chroman-3-yl]oxycarbonylamino]-3-methyl-butyric acid methyl ester] has an EC50 of 0.515 µM.
Molecule Oc1ccccc1CN=Nc1nc2ccccc2o1 [(6E)-6-[(1,3-benzoxazol-2-ylhydrazo)methylidene]-1-cyclohexa-2,4-dienone] has an EC50 of 31.1 µM.
Molecule Cc1cccc(N2CCN(C(=O)CCCn3c(=S)[nH]c4cc5c(cc4c3=O)OCO5)CC2)c1C [MLS000095366] has an EC50 of 11.2 µM.
In the case of CC(C)c1ccc(OCC(=O)NNC(=O)c2cnccn2)cc1 [MLS000332605], the EC50 is reported as 15.6 µM.
O=C(C=Cc1ccccc1)CC(=O)c1ccccc1O [MLS000627068] gave an EC50 of 62.4 µM.
With CC(=NNC(=O)c1ccc2c(c1)OCO2)c1ccc(Br)s1 [MLS000666595] the EC50 was 726 µM.
For COc1cc(NC(=S)NC(=O)c2ccco2)ccc1NC(=O)C(C)C [MLS000672338], the EC50 was 7.99 µM.
For CC(=O)c1cccc(NC(=S)NC(=O)c2ccc(C)cc2)c1 [MLS000687464], the EC50 was 1.19 µM.
Work on O=c1c2ccccc2[nH]c(=S)n1CCN1CCC(=C(c2ccc(F)cc2)c2ccc(F)cc2)CC1 [SMR000058550] yielded an EC50 of 13.3 µM.

Same assay, conditions: inactive by the depositor's call
Work on Cc1ccc(-c2n[nH]c(=S)n2NC=CCc2ccccc2[N+](=O)[O-])cc1 yielded an EC50 of 0.807 µM.
In the case of COc1ccccc1N1CCN(C(=S)NC(=O)/C=C/c2ccccc2)CC1 [(E)-N-[4-(2-Methoxy-phenyl)-piperazine-1-carbothioyl]-3-phenyl-acrylamide], the EC50 is reported as 1.34 µM.
O=C(NC(=S)Nc1cccc2cccnc12)c1cccs1 [MLS000688132] gave an EC50 of 0.124 µM.
